Patent US12043600B2, “Microbiocidal compounds” (SYNGENTA CROP PROTECTION AG, priority 2018, dated 2024)

Columns and labels:
[1] = tested on: Monographella nivalis (Microdochium nivale); experiment: Monographella nivalis (Microdochium nivale)/Liquid Culture (Foot Rot Cereals); format: cell-based; conditions: liquid culture, compared to untreated control
Outline: (§1)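 Growth inhibition read in liquid culture: spores from frozen stocks, suspended in potato dextrose broth, meet DMSO-dissolved compound placed beforehand in the plate.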

[2] = tested on: Glomerella lagenarium (Colletotrichum lagenarium); experiment: Glomerella lagenarium (Colletotrichum lagenarium)/Liquid Culture (Anthracnose); format: cell-based; conditions: Colletotrichum orbiculare, liquid culture, compared to untreated control
[3] = tested on: Phytophthora infestans; experiment: whole plant or invertebrate; format: in vivo; conditions: in Solanum lycopersicum, foliar, read-out: control of Phytophthora infestans
[4] = tested on: Phaeosphaeria nodorum (Septoria nodorum); experiment: Phaeosphaeria nodorum (Septoria nodorum)/Wheat/Leaf Disc Preventative (Glume Blotch); format: in vivo; conditions: Parastagonospora nodorum, foliar, wheat leaf disc preventative, compared to untreated control
Outline: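 Preventative test: compound spray first, then spore inoculation after 2 days on cv. Kanzler wheat leaf segments. Incubation in a climate cabinet at 20 °C and 75% rh under a 12 h light/12 h dark cycle. Activity rated as % control relative to untreated discs at 5–7 days post-application.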

[5] = tested on: Mycosphaerella arachidis (Cercospora arachidicola); experiment: Mycosphaerella arachidis (Cercospora arachidicola)/Liquid Culture (Early Leaf Spot); format: cell-based; conditions: liquid culture, compared to untreated control
Outline: as §1

[6] = tested on: Magnaporthe grisea (Pyricularia oryzae); experiment: whole plant or invertebrate; format: in vivo; conditions: foliar, read-out: control of Magnaporthe grisea
[7] = tested on: Thanatephorus cucumeris (Rhizoctonia solani); experiment: Thanatephorus cucumeris (Rhizoctonia solani)/Liquid Culture (Foot Rot, Damping-Off); format: cell-based; conditions: liquid culture, compared to untreated control
Experimental: Mycelia fragments of a newly grown liquid culture of the fungus are directly mixed into nutrient broth (PDB potato dextrose broth). After placing a (DMSO) solution of the test compounds into a microtiter plate (96-well format), the nutrient broth containing the fungal material is added.

[8] = tested on: Puccinia recondita f. sp. tritici; experiment: Puccinia recondita f. sp. tritici/Wheat/Leaf Disc Preventative (Brown Rust); format: in vivo; conditions: foliar, 200 ppm, wheat leaf disc preventative, compared to untreated control, read-out: control of Puccinia recondita f. sp. tritici
[9] = tested on: Mycosphaerella graminicola (Septoria tritici); experiment: Mycosphaerella graminicola (Septoria tritici)/Liquid Culture (Septoria Blotch); format: cell-based; conditions: Zymoseptoria tritici; 20 ppm; liquid culture; compared to untreated control
Outline: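 Results given as % disease control: test compound in DMSO was placed in wells first, then potato dextrose broth carrying cryostored fungal conidia was added.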

[10] = tested on: Blumeria graminis f. sp. tritici (Erysiphe graminis f. sp. tritici); experiment: Blumeria graminis f. sp. tritici/Wheat/Leaf Disc Preventative (Powdery Mildew on Wheat); format: in vivo; conditions: foliar, wheat leaf disc preventative, compared to untreated control
Outline: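 Preventative leaf-disc test: percent disease control versus untreated leaf segments read 6-8 days post-application. Compound spray applied to wheat cv. Kanzler segments on agar one day before shaking infected plants over them; incubation at 20° C and 60% rh, 24 h darkness then 12 h light/12 h dark cycles.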

[11] = tested on: Botryotinia fuckeliana (Botrytis cinerea); experiment: Botryotinia fuckeliana (Botrytis cinerea)/Liquid Culture (Gray Mould); format: cell-based; conditions: liquid culture, compared to untreated control
Experimental: Conidia of the fungus from cryogenic storage are directly mixed into nutrient broth (Vogels broth). After placing a (DMSO) solution of test compound into a microtiter plate (96-well format), the nutrient broth containing the fungal spores is added.

[12] = tested on: Plasmopara viticola; experiment: whole plant or invertebrate; format: in vivo; conditions: foliar, read-out: control of Plasmopara viticola
[13] = tested on: Phakopsora pachyrhizi; experiment: Phakopsora pachyrhizi/Soybean/Preventative (Soybean Rust); format: in vivo; conditions: foliar, 288 h, 200 ppm, soybean leaf disc preventative, compared to untreated control, read-out: control of Phakopsora pachyrhizi
[14] = tested on: Puccinia recondita f. sp. tritici; experiment: Puccinia recondita f. sp. tritici/Wheat/Leaf Disc Curative (Brown Rust); format: in vivo; conditions: foliar, wheat leaf disc curative, compared to untreated control
Outline: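 Formulated compound, diluted in water, is applied to inoculated wheat cv. Kanzler leaf segments on agar one day post-inoculation (pre-incubation dark, 19° C, 75% rh). After 6-8 days at 19° C, 75% rh and 12 h/12 h light, activity is rated as percent disease control relative to untreated segments.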

[15] = tested on: Alternaria solani; experiment: Alternaria solani/Tomato/Leaf Disc (Early Blight); format: in vivo; conditions: foliar, tomato leaf disc, compared to untreated control
Experimental: Tomato leaf disks cv. Baby are placed on agar in multiwell plates (24-well format) and sprayed with the formulated test compound diluted in water. The leaf disks are inoculated with a spore suspension of the fungus 2 days after application. The inoculated leaf disks are incubated at 23° C./21° C. (day/night) and 80% rh (relative humidity) under a light regime of 12/12 h (light/dark) in a climate cabinet and the activity of a compound is assessed as percent disease control compared to untreated when an appropriate level of disease damage appears on untreated check disk leaf disks (5-7 days after application).

[16] = tested on: Pyrenophora teres; experiment: Pyrenophora teres/Barley/Leaf Disc Preventative (Net Blotch); format: in vivo; conditions: foliar, 200 ppm, barley leaf disc preventative, compared to untreated control, read-out: control of Pyrenophora teres
Outline: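 Preventative leaf-disc test: inoculation with fungal spores took place 2 days after spraying segments of barley cv. Hasso, placed on agar, with water-diluted formulated compound. Read-out is % disease control per compound.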

| Structure (SMILES) | inhibition of growth at 20 ppm [1] [%] | inhibition of growth at 20 ppm [2] [%] | pest or weed control at 200 ppm [3] [%] | pest or weed control at 200 ppm [4] [%] | inhibition of growth at 20 ppm [5] [%] | pest or weed control at 200 ppm [6] [%] | inhibition of growth at 20 ppm [7] [%] | pest or weed control at 200 ppm [8] [%] | inhibition of growth at 20 ppm [9] [%] | pest or weed control at 200 ppm [10] [%] | inhibition of growth at 20 ppm [11] [%] | pest or weed control at 200 ppm [12] [%] | pest or weed control at 200 ppm [13] [%] | pest or weed control at 200 ppm [14] [%] | pest or weed control at 200 ppm [15] [%] | pest or weed control at 200 ppm [16] [%] | melting point [°C] |
| --- | --- | --- | --- | --- | --- | --- | --- | --- | --- | --- | --- | --- | --- | --- | --- | --- | --- |
| CO/C=C(\Oc1cc(-n2cc(C)cn2)ccc1C)C(=O)OC [Compound E-59, methyl (Z)-3-methoxy-2-[2-methyl-5-(4-methylpyrazol-1-yl)phenoxy]prop-2-enoate] | ≥ 80 | ≥ 80 | ≥ 80 | ≥ 80 | ≥ 80 | ≥ 80 | ≥ 80 | ≥ 80 | ≥ 80 | ≥ 80 | ≥ 80 | ≥ 80 | ≥ 50 | – | – | – | – |
| CO/C=C(\Oc1cc(-n2ccc(C3(C)CC3)n2)ccc1C)C(=O)OC [Compound E-82, methyl (Z)-3-methoxy-2-[2-methyl-5-[3-(1-methylcyclopropyl)pyra-zol-1-yl]phenoxy]prop-2-enoate] | ≥ 80 | ≥ 80 | ≥ 80 | ≥ 80 | ≥ 80 | ≥ 80 | – | ≥ 80 | ≥ 80 | ≥ 80 | ≥ 80 | ≥ 80 | ≥ 50 | ≥ 80 | ≥ 80 | ≥ 80 | 83 to 86 |
| CO/C=C(\Oc1cc(-n2ncc(Br)n2)ccc1C)C(=O)OC [Compound F-1, methyl (Z)-2-[5-(4-bromotriazol-2-yl)-2-methyl-phenoxy]-3-methoxy-prop-2-enoate] | ≥ 80 | ≥ 80 | ≥ 80 | ≥ 80 | ≥ 80 | ≥ 80 | – | ≥ 80 | ≥ 80 | ≥ 80 | – | ≥ 80 | – | ≥ 80 | ≥ 80 | ≥ 80 | – |
| CO/C=C(\Oc1cc(-n2ncc(C3CCCC3)n2)ccc1C)C(=O)OC [Compound F-5, methyl (Z)-2-[5-(4-cyclopentyltriazol-2-yl)-2-methyl-phenoxy]-3-methoxy-prop-2-enoate] | ≥ 80 | ≥ 80 | ≥ 80 | ≥ 80 | ≥ 80 | ≥ 80 | – | ≥ 80 | ≥ 80 | ≥ 80 | – | ≥ 80 | – | ≥ 80 | ≥ 80 | ≥ 80 | – |
| CO/C=C(\Oc1cc(-n2ncc(C(C)=NO)n2)ccc1C)C(=O)OC [Compound F-13, methyl (Z)-2-[5-[4-(N-hydroxy-C-methyl-carbonimidoyl)triazol-2-yl]-2-methyl-phenoxy]-3-methoxy-prop-2-enoate] | ≥ 80 | ≥ 80 | ≥ 80 | ≥ 80 | ≥ 80 | ≥ 80 | – | ≥ 80 | ≥ 80 | ≥ 80 | – | ≥ 80 | – | ≥ 80 | ≥ 80 | ≥ 80 | 146 to 150 |
